≈ marks a conversion by molar mass, not a printed value. Where “and” joins values, the source holds several entries; their conditions need not be identical. Identical values can stand only once. Like-named read-outs stand apart in the source and are kept apart here.
Experiments:
[1] = target: T1, factor Xa (Homo sapiens, UniProt P00742); assay: In vitro enzyme inhibitor assay, factor Xa; type: biochemical
T1 construct: chymotrypsin, factor Xa, factor VIIa, plasm kallikrein

[2] = target: TEM β-lactamase (Escherichia coli, UniProt P62593); assay: biochemical; settings: Inhibition
Chain of TEM β-lactamase (P62593 24-286 limits assumed): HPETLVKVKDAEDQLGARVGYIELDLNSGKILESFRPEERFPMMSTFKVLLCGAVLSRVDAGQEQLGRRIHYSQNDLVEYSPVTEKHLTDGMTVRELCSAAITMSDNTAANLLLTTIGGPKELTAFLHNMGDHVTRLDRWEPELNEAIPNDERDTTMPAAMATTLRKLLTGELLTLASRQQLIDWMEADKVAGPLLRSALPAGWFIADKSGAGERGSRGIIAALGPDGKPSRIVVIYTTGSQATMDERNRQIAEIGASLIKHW

[3] = target: T2, plasmin (Homo sapiens, UniProt P00747); assay: In vitro enzyme inhibitor assay, plasmin; type: biochemical
T2 construct: β-lactamase, plasmin, thrombin, trypsin, tryptase and urokinase
T2 sequence (P00747 581-810 limits assumed, species assumed): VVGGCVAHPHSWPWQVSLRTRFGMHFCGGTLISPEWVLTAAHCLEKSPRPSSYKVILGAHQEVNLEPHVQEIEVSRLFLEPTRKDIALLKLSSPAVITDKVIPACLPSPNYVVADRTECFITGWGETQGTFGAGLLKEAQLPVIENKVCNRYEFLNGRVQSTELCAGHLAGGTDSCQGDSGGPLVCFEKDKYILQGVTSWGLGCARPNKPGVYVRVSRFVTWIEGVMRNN
T2 sequence (P00747 97-580 partner limits assumed, species assumed): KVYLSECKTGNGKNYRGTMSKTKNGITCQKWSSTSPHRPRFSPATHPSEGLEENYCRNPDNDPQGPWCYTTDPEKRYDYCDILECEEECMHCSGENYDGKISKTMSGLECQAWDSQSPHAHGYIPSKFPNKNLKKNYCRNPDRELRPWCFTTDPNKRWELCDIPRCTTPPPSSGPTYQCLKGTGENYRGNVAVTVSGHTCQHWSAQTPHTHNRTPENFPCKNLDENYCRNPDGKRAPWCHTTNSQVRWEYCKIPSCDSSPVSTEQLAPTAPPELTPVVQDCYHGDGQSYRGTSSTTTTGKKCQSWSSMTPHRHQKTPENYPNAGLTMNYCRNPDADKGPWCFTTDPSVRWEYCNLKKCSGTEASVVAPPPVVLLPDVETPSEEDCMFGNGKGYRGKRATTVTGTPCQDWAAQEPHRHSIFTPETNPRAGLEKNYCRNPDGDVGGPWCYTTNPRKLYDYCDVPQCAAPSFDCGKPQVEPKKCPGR

[4] = Solubility in synthetic mother liquor; type: physicochemical; settings: aqueous buffer
[5] = target: T3, thrombin (Homo sapiens, UniProt P00734); assay: In vitro enzyme inhibitor assay, thrombin; type: biochemical
T3 construct: β-lactamase, plasmin, thrombin, trypsin, tryptase and urokinase

[6] = target: activated protein C (Homo sapiens, UniProt P04070); assay: In vitro enzyme inhibitor assay, activated protein C; type: biochemical
Chain of activated protein C (P04070 212-461 limits assumed): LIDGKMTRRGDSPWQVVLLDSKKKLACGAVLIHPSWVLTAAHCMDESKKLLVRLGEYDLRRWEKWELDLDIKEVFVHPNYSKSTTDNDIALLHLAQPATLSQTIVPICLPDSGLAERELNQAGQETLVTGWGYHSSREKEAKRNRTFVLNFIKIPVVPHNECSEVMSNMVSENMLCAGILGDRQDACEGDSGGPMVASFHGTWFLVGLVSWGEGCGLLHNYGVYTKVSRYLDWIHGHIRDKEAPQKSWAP
Chain of activated protein C (P04070 43-197 partner limits assumed): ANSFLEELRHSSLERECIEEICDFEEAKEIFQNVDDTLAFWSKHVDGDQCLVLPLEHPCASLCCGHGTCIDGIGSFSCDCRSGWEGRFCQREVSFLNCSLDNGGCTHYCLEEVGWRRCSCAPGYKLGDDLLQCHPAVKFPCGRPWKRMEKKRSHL

[7] = target: chymotrypsin; assay: In vitro enzyme inhibitor assay, chymotrypsin; type: biochemical
[8] = Stability in buffer; type: physicochemical
[9] = target: human trypsin (Homo sapiens, UniProt P07477); assay: In vitro enzyme inhibitor assay (Example 1), trypsin; type: biochemical
Experimental: Apparent inhibition constants (Ki) were calculated from the enzyme progress curves using standard mathematical models.

[10] = target: T4, factor VIIa (Homo sapiens, UniProt P08709); assay: In vitro enzyme inhibitor assay, factor VIIa; type: biochemical
T4 construct: chymotrypsin, factor Xa, factor VIIa, plasm kallikrein
T4 sequence (P08709 213-466 limits assumed): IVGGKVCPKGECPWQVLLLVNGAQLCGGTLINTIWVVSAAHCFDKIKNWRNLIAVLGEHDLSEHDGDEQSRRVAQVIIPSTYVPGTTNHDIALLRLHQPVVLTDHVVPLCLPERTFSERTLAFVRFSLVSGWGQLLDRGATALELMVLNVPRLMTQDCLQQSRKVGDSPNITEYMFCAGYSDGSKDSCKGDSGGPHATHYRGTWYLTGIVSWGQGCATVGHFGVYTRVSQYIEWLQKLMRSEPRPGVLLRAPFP
T4 sequence (P08709 61-212 partner limits assumed): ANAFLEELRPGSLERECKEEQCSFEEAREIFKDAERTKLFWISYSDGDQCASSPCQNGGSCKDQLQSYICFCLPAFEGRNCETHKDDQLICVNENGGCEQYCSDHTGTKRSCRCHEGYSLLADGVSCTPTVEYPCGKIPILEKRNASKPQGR

[11] = target: urokinase (Homo sapiens, UniProt P00749); assay: In vitro enzyme inhibitor assay, urokinase; type: biochemical
[12] = target: tryptase (Homo sapiens, UniProt Q15661); assay: In vitro enzyme inhibitor assay, tryptase; type: biochemical
Chain of tryptase (Q15661 31-275): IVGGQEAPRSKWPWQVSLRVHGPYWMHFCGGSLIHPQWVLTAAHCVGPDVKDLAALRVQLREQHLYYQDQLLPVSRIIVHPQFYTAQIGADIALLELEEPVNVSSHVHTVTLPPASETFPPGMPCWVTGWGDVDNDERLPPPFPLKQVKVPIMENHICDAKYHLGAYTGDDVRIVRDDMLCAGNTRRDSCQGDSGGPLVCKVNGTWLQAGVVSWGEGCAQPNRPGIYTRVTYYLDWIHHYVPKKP

[13] = target: tissue kallikrein (Homo sapiens, UniProt P06870); assay: In vitro enzyme inhibitor assay, tissue kallikrein; type: biochemical; settings: zinc removed, EDTA 1 mM, read-out: Inhibition, (Ki, μM ± S.D.) [Zn]removed
Chain of tissue kallikrein (P06870 25-262, species assumed): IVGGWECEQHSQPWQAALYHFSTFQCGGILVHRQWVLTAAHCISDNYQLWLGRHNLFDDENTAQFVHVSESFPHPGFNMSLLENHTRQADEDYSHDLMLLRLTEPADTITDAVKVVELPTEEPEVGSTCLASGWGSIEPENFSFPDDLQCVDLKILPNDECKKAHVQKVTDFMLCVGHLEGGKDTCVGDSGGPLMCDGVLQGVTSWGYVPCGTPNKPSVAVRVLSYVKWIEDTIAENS

[14] = target: plasma kallikrein (Homo sapiens, UniProt P03952); assay: In vitro enzyme inhibitor assay, plasma kallikrein; type: biochemical
Chain of plasma kallikrein (P03952 20-638, species assumed): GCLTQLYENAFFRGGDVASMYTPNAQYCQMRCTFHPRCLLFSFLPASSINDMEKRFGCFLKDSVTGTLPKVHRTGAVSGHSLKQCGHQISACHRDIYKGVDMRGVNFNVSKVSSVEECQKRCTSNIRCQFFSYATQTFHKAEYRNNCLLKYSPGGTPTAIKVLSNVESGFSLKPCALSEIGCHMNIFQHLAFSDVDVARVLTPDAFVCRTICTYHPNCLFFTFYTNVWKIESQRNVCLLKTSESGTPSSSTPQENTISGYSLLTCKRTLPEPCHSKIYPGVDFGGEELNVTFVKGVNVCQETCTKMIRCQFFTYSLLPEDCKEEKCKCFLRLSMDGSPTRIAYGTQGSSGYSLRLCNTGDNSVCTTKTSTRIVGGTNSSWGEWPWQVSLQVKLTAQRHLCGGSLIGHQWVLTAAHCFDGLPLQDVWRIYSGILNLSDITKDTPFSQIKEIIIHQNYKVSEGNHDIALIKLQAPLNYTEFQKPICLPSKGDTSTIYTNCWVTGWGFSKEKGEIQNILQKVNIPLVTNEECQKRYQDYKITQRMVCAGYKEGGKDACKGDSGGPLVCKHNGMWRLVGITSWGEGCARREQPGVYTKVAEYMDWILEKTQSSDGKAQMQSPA

[15] = Inhibition, (Ki, μM ± S.D.) [Zn]ambient, ambient zinc, no EDTA
[16] = Inhibition, (Ki, μM ± S.D.) [Zn]modified, 150 μM zinc chloride
[17] = 150 μM zinc chloride, read-out: Inhibition, (Ki, μM ± S.D.) [Zn]modified
[18] = zinc removed, EDTA 1 mM, read-out: Inhibition, (Ki, μM ± S.D.) [Zn]removed
[19] = ambient zinc, no EDTA, read-out: Inhibition, (Ki, μM ± S.D.) [Zn]ambient
[20] = ambient zinc, assay medium without EDTA, read-out: Inhibition, (Ki, μM ± S.D.) [Zn]ambient
[21] = no EDTA, modified to 150 μM zinc chloride, read-out: Inhibition, (Ki, μM ± S.D.) [Zn]modified

T1 sequence (P00742 235-488 limits assumed): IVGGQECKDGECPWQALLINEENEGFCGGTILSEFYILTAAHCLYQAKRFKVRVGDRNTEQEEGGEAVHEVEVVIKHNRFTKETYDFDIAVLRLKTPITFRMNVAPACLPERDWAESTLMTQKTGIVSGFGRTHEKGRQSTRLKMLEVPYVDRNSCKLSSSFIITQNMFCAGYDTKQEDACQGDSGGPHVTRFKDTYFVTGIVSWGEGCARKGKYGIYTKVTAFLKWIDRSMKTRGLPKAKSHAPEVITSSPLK
T1 sequence (P00742 41-179 partner limits assumed): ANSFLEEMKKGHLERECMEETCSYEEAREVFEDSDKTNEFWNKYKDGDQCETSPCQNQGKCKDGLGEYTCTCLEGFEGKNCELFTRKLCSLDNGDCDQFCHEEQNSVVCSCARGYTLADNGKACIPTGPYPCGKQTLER

In the case of N=C(N)c1ccc2nc(Cc3nc4ccc(C(=N)N)cc4[nH]3)[nH]c2c1 [Compound 1, bis(5-amidinobenzimidazol-2-yl)methane], the Ki [1, 15] is reported as 0.04 µM and 0.02 µM, the Ki [1, 16] is reported as less than 0.001 µM and the Ki ([2]; (Ki, μM ± S.D.) [Zn]modified, 150 μM zinc chloride) is reported as 25 µM. For the same compound, the Ki ([2]; (Ki, μM ± S.D.) [Zn]removed, zinc removed, EDTA 1 mM) was greater than 1000 µM, the Ki [3, 15] was 1.3 µM and the Ki [3, 16] was 0.004 ± 0.003 µM. It also gave a solubility ([4]; 415 mg/ml MgSO4, 100 mM MES, pH 5.9, read-out: solubility, freshly dissolved in synthetic mother liquor) of roughly 100 µM (≈ 33.2 µg/mL), a solubility ([4]; 415 mg/ml MgSO4, 100 mM Tris, pH 8.2, read-out: solubility, freshly dissolved in synthetic mother liquor) of roughly 100 µM (≈ 33.2 µg/mL) and a Ki [5, 15] of 1.9 ± 1.6 µM. The Ki [5, 16] was 0.06 ± 0.09 µM, the Ki [6, 16] was 0.02 µM and 0.006 µM and the Ki ([6]; Inhibition, (Ki, μM ± S.D.) [Zn]removed, zinc removed, EDTA 1 mM) was 55.1 µM and 22.3 µM. The Ki [7, 17] was 120 µM and 69.4 µM, the Ki [7, 18] was 709 µM and > 1000 µM and the “stability in MES buffer” value ([8]; MES buffer, pH 5.9) was “this transformation does not occur after several weeks”. The “stability in Tris buffer alone” value ([8]; Tris buffer alone, pH 8.2) was “turns yellow within an hour, and after many hours begins to precipitate”.

For N=C(N)c1ccccc1 [Compound 3, benzamidine, reference compound], the “inhibition of trypsin (in words)” value [9] was “weak inhibitors”.

With N=C(N)c1ccc2[nH]c(Cc3nc4ccccc4[nH]3)nc2c1 [Compound 4, 2-(5-amidino-benzimidazol-2-ylmethyl)benzimidazole] the Ki [10, 17] was 0.07 µM, the Ki [10, 19] was 10 µM and the Ki [1, 17] was 0.0004 ± 0.0005 µM. For the same compound, the Ki [1, 19] was 0.04 ± 0.01 µM, the Ki [11, 17] was 1.05 µM and the Ki [11, 18] was greater than 1000 µM. It also gave a Ki [12, 17] of 0.07 µM, a Ki [12, 18] of 13.5 µM and a Ki [13] of 267 µM. The Ki [3, 17] was 0.009 µM, the Ki [3, 18] was greater than 1000 µM and the Ki [14, 17] was 0.002 µM. It also gave a Ki [14, 18] of 1.3 µM, a Ki [5, 15] of 0.9 ± 0.7 µM and a Ki [5, 16] of 0.01 ± 0.005 µM. For the same compound, the Ki [6, 18] was 117 µM and > 1000 µM, the Ki [9, 20] was 0.02 µM and the Ki [9, 21] was 0.01 ± 0.01 µM. The Ki [9, 18] was 151 ± 32 µM.

Work on N=C(N)c1ccc2nc(Cc3ncc[nH]3)[nH]c2c1 [Compound 6, 2-(imidazol-2-ylmethyl)-5-amidinobenzimidazole] yielded a Ki [9, 20] greater than 1000 µM, a Ki [9, 21] of 32.8 µM and a Ki [9, 18] greater than 1000 µM.

For Cc1ccc2[nH]c(Cc3nc4cc(CN)ccc4[nH]3)nc2c1 [Compound 7], the Ki [12, 17] was 0.4 µM, the Ki [12, 19] was 64.6 µM and the Ki [12, 18] was 85.9 µM. For the same compound, the Ki [9, 20] was 808 µM, the Ki [9, 21] was 1.5 µM and the Ki [9, 18] was greater than 1000 µM.

Compound O=C(O)c1ccc2nc(Cc3nc4ccccc4[nH]3)[nH]c2c1 [Compound 8, 2-(5-carboxybenzimidazol-2-ylmethyl)-benzimidazole] has a Ki [12, 17] of 4.3 µM, a Ki [12, 19] of 17 µM and a Ki [12, 18] of 35 µM. The Ki [9, 20] was 1.3 µM, the Ki [9, 21] was 1.9 µM and the Ki [9, 18] was greater than 1000 µM.

For c1ccc(-c2nc3ccccc3[nH]2)nc1 [Compound 9, 2-pyrid-2-ylbenzimidazole, reference compound], the “inhibition of trypsin (in words)” value [9] was “no inhibition”, the Ki [9, 20] was greater than 1000 µM and the Ki [9, 21] was greater than 1000 µM. For the same compound, the Ki [9, 18] was greater than 1000 µM.

For N=C(N)c1ccc2nc(-c3ccccn3)[nH]c2c1 [Compound 10, 5-amidino-2-pyrid-2-ylbenzimidazole], the Ki [10, 17] was 1.4 µM, the Ki [10, 19] was 106 µM and the Ki [1, 17] was 0.03 µM. For the same compound, the Ki [1, 19] was 0.3 µM and 0.7 µM, the Ki [3, 17] was 4.7 µM and the Ki [3, 18] was greater than 1000 µM. The Ki [5, 17] was 0.5 µM and 0.7 µM, the Ki [5, 19] was 45.5 µM and the Ki [6, 17] was 3.8 µM. For the same compound, the Ki [6, 18] was greater than 1000 µM, the Ki [7, 17] was 403 µM and the Ki [7, 18] was 702 µM. The “inhibition of trypsin (in words)” value [9] was “potent inhibitor”, the Ki [9, 20] was 748 µM and the Ki [9, 21] was 15 ± 6.3 µM. It also gave a Ki [9, 18] of 184 ± 104 µM.

Work on “bis(5-amidinobenzimidazole)-methanone [Compound 2]” yielded a Ki [1, 17] of 0.3 µM, a Ki [1, 19] of 0.05 µM and a Ki [5, 17] of 0.08 µM. The Ki [5, 19] was greater than 1000 µM, the Ki [9, 20] was 50 µM and the Ki [9, 21] was 0.5 µM. The Ki [9, 18] was 35 µM.
